Results on three compounds are retold here after patent US5272152A, “Purinyl and pyrimidinyl tetrahydrofurans” (priority 1991, dated 1993).

≈ marks a conversion by molar mass, not a printed value. Read-outs that look alike come from different tables or passages of the source.

For one assay, the system named is HSV-1. Description: HSV-1 antiviral assay: plaque reduction in WI-38 cell culture monolayers. Particulars: read-out: ID50 HSV-1. In kind it is cell-based, herpes simplex virus type 1, strain Schooler. The method, then:
(§1) Assays were performed in cell culture systems to determine the concentrations of compounds that are effective in preventing several kinds of viral infections.
(§2) HSV-1 (herpes simplex virus type 1, strain Schooler), HSV-2 (herpes simplex virus type 2, strain 186), VZV (varicella zoster virus, strain ELLEN).
(§3) HSV-1, HSV-2, and VZV antiviral assays: Virus was adsorbed to WI-38 cell culture monolayers in 6 well culture plates (Costar, Cambridge, Mass.) for 1 hour prior to addition of maintenance medium containing duplicate dilutions of the test compound. Inhibition of plaque development was evaluated on fixed and stained monolayers after 4 days incubation at 37° C. for HSV-1 and HSV-2 and after 6-7 days incubation at 37° C. for VZV. ID50 values were determined from the drug concentration which conferred at least a 50% plaque reduction compared to virus controls (Table 1).

The test system of another assay is HSV-2. In words: HSV-2 antiviral assay: plaque reduction in WI-38 cell culture monolayers. Particulars: read-out: ID50 HSV-2. In kind it is cell-based, herpes simplex virus type 2, strain 186. The method, then: as §1, §2, §3
The next assay relates to VZV. In words: VZV antiviral assay: plaque reduction in WI-38 cell culture monolayers. In kind it is cell-based, varicella zoster virus, strain ELLEN. Particulars: Human alphaherpesvirus 3, 156 h; WI-38 cells; at least 50% plaque reduction vs virus controls; 6-7 days at 37° C.; read-out: ID50 VZV. The method, then:
as §1, §2, §3

The mark [1] stands for this setting: Human alphaherpesvirus 1, 96 h, WI-38 cells, at least 50% plaque reduction vs virus controls, 4 days at 37° C.
[2] abbreviates: Human alphaherpesvirus 2, 96 h, WI-38 cells, at least 50% plaque reduction vs virus controls, 4 days at 37° C.

For `Nc1ccn([C@@H]2CO[C@H](CO)[C@H]2O)c(=O)n1` [[3R-(3α,4β,5α)]-4-Amino-1-[tetrahydro-4-hydroxy-5-(hydroxymethyl)-3-furanyl]-2(1H)-pyrimidinone], the IC50 in the assay on HSV-1 (Human alphaherpesvirus 1, WI-38, 96 h) is more than 100 µg/mL; with HSV-2 (Human alphaherpesvirus 2, WI-38, 96 h), more than 100 µg/mL; in the assay with VZV, 25 to 50 µg/mL (≈ 110 to 220 µM).

Regarding `Cc1cn([C@@H]2CO[C@H](CO)[C@H]2O)c(=O)[nH]c1=O` [[3R-(3α,4β,5α)]-5-Methyl-1-[tetrahydro-4-hydroxy-5-(hydroxymethyl)-3-furanyl]2,4(1H,3H)pyrimidinedione], the values for the IC50 with HSV-1 (setting [1]), with HSV-2 (setting [2]) and in the assay on VZV were 10 µg/mL (≈ 41.3 µM), more than 100 µg/mL and more than 100 µg/mL, respectively.

For the compound `Nc1nc2c(ncn2[C@@H]2CO[C@H](CO)[C@H]2O)c(=O)[nH]1`, the IC50 in the assay on HSV-1 (setting [1]) was 2 to 5 µg/mL (≈ 7.48 to 18.7 µM); in the assay with HSV-2 (setting [2]), 2 µg/mL (≈ 7.48 µM); in the assay on VZV, 50 to 100 µg/mL (≈ 187 to 374 µM).
